ChEMBL document CHEMBL1201862, “PubChem BioAssay data set” (2004)
Active and inactive are the calls of the source.

Experiments:
Format in all cases: functional
[1] = target: Delta-type opioid receptor (Homo sapiens, UniProt P41143); test: Counterscreen for agonists of heterodimerization of the mu 1 (OPRM1) and delta 1 (OPRD1) opioid receptors: Luminescence-based cell-based high throughput dose response assay to identify agonists of OPRD1 homodimerization. [Related pubchem assays (depositor defined):AID504326, AID504355, AID504692, AID504904, AID504905]
Chain of Delta-type opioid receptor (P41143 whole entry): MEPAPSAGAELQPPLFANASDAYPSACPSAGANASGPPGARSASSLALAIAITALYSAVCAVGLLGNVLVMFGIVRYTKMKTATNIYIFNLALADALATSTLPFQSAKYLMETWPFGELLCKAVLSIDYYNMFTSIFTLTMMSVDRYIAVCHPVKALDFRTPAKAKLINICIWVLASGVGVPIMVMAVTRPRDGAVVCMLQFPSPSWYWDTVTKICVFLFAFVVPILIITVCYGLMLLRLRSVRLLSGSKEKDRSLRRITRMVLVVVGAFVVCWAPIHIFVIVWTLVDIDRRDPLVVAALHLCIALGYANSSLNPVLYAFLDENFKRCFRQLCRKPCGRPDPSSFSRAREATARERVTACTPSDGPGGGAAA

[2] = target: Mu-type opioid receptor (Homo sapiens, UniProt P35372); test: Counterscreen for agonists of heterodimerization of the mu 1 (OPRM1) and delta 1 (OPRD1) opioid receptors: Luminescence-based cell-based high throughput dose response assay to identify agonists of OPRM1 homodimerization.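 Further: U2OS cells expressing OPRM1 and beta-arrestin as split beta-galactosidase partners.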
Chain of Mu-type opioid receptor (P35372 whole entry): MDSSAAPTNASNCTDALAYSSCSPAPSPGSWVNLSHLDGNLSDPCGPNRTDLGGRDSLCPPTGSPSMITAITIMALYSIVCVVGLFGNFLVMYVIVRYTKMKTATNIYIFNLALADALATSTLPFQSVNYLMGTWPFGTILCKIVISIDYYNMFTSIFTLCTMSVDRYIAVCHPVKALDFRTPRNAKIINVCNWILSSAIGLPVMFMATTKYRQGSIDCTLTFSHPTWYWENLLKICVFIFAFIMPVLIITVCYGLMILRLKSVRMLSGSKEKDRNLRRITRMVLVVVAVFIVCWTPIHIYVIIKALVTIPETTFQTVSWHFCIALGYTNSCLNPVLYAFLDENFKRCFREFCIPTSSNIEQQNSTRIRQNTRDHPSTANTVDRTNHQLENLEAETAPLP

[3] = target: 5-hydroxytryptamine receptor 5A (Homo sapiens, UniProt P47898); test: Counterscreen for agonists of OPRM1-OPRD1 heterodimerization: luminescence-based cell-based high throughput dose response assay to identify agonists of 5-hydroxytryptamine (serotonin) 5A receptor (HTR5A). [Related pubchem assays (depositor defined):AID504326, AID504355, AID504692, AID504904, AID504905]
Chain of 5-hydroxytryptamine receptor 5A (P47898 whole entry): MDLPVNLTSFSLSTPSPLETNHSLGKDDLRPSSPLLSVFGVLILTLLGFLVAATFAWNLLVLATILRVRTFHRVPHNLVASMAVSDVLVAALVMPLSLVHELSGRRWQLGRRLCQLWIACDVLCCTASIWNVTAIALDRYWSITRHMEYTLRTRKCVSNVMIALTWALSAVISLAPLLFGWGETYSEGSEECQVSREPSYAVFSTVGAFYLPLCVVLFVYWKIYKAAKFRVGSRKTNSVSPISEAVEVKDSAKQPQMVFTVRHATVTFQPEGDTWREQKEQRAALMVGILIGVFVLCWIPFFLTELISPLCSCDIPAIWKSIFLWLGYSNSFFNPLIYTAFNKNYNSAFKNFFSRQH

[4] = target: Glucose-6-phosphate 1-dehydrogenase (Homo sapiens, UniProt P11413); test: inhibition of Homo sapiens G6PD, dose series – biochemical, fluorescence, selectivity assay for P. falciparum G6PD inhibitor project, dose response (AID 504792)
Chain of Glucose-6-phosphate 1-dehydrogenase (P11413 whole entry): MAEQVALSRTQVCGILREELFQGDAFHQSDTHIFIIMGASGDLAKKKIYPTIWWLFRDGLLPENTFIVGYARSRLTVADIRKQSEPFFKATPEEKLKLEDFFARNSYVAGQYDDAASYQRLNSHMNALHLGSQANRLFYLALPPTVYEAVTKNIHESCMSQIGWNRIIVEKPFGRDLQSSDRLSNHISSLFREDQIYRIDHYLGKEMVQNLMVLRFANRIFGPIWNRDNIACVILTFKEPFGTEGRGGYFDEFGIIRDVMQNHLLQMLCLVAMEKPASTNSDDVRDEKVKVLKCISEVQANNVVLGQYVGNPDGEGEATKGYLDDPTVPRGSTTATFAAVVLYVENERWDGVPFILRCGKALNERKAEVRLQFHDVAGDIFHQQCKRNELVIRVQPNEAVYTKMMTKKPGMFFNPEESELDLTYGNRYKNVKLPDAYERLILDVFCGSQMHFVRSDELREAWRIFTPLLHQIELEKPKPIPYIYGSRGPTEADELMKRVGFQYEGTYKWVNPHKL

[5] = tested on: H4; test: Luminescence Cell-Based Dose Response HTS to Identify Activators of 5'UTR Stem-Loop Driven Prion Protein mRNA Translation in H4 Neuroglioblastoma Cells. [Related pubchem assays: 1829 (Project Summary), 1814 (Primary HTS)]; conditions: Homo sapiens
[6] = target: T1, Heat shock factor protein 1 (Mus musculus, UniProt P38532); test: decrease of HSF1-responsive luciferase luminescence – cell-based, NIH3T3, dose retest, confirmation (AID 2382);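 further: NIH3T3 fibroblasts with HSF1-driven luciferase reporter stressed by proteasome inhibitor MG132; luminescence from HSF1-driven luciferase expression after 8 hours of MG132 stress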
T1 sequence (P38532 whole entry): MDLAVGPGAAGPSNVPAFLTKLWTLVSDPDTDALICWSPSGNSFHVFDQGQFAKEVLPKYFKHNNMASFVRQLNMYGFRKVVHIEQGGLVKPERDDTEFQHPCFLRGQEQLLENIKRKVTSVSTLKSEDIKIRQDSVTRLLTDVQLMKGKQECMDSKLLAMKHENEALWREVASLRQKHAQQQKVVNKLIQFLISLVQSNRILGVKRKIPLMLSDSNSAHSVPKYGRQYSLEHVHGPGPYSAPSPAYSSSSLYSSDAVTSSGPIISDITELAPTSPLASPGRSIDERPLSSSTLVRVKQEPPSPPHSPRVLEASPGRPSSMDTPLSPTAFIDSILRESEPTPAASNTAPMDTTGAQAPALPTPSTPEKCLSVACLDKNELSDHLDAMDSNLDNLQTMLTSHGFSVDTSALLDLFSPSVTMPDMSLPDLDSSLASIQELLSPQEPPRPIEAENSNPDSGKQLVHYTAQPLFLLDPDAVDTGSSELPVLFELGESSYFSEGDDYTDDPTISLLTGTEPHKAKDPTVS

Row | Compound | EC50 [1] | EC50 [2] | EC50 [3] | IC50 [4] | EC50 [5] | EC50 [6]
1 | CC1[C@H]2Cc3ccc(O)cc3[C@]1(C)CCN2C (stereo not given in full) | > 92.4 µM (inactive) | > 92.4 µM (inactive) | > 92.4 µM (inactive) |  |  | 
2 | O=C(COC(=O)c1cnccn1)c1ccc([N+](=O)[O-])cc1 |  |  |  | > 80 µM (inactive) |  | 
3 | Cc1cc(/C=C2/C(=O)NN(c3ccccc3)C2=O)c(C)n1-c1ccc(O)cc1 | 9.3 µM (active) | > 92.5 µM (inactive) | > 92.5 µM (inactive) |  | < 0.1 µM (active) | 4.81 µM (active)
4 | COc1ccc(CN(C)S(=O)(=O)c2nnc(NC(=O)c3cccc(C)c3)s2)cc1OC |  |  |  | 61.2 µM (inactive) |  | 
